Data taken from patent publication US10336735B2, “Small molecule inhibitors of fibrosis” (THE CALIFORNIA INSTITUTE FOR BIOMEDICAL RESEARCH, priority 2014, dated 2019).

The compounds below were run on primary human lung fibroblasts and primary rodent HSCs (assay: High content imaging assay (α-SMA staining, cell morphology) of fibroblast to myofibroblast transdifferentiation, confirmed by Western blot and RT-PCR). Settings: Homo sapiens, Fibroblast; imaging and western based activity.
Excerpt: High content imaging assays have been established, using primary human lung fibroblasts and primary rodent HSCs, that enable the identification of small molecules that either inhibit myofibroblast formation/activation or induce the reversion of activated myofibroblasts to a quiescent fibroblast state. Conditions, involving serum starvation and subsequent TGF-β treatment, have been identified that facilitate robust in vitro transdifferentiation in a miniaturized (384 well plate) format that is amenable to high throughput small molecule screening. The inhibition assay is based on α-SMA immunofluorescent staining and cell morphology changes associated with fibroblast to myofibroblast transdifferentiation, Using the selective ALK-5 TGF-β1 receptor inhibitor ([…]) as a positive control, the inhibition assay has been used to initiate a screen of a collection of ˜100,000 small molecules that consists of bioactive small molecules and a diversity set that has been assembled based on 2D and 3D structural diversity and inherent “drug-likeness” properties. Preliminary screening led to the identification of multiple previously identified anti-fibrotic molecules.
A high content imaging assay, based on α-SMA staining and cell morphological changes associated with fibroblast to myofibroblast transdifferentiation, was established using primary human lung fibroblasts and primary rodent HSCs. Conditions, involving serum starvation and subsequent TGF-β treatment, were identified that facilitate robust in vitro transdifferentiation in a miniaturized (384 well plate) format that is amenable to high throughput small molecule screening. A selective ALK-5 TGF-β1 receptor inhibitor (SB-431542) was used as a positive control. […] This assay was used to evaluate compounds of Formula (I), (Ia), (II), (IIa), (III), (IIIa), (IV), (IVa), (IVb), (V), (Va), (VI), (VIa), (VIb), (VIc), (VII), (VIIa), (VIII), (VIIIa), (IX), (IXa), (X), or (Xa) generated from medicinal chemistry efforts.
The activity of Itraconazole and compounds of Formula (I), (Ia), (II), (IIa), (III), (IIIa), (IV), (IVa), (IVb), (V), (Va), (VI), (VIa), (VIb), (VIc), (VII), (VIIa), (VIII), (VIIIa), (IX), (IXa), (X), or (Xa) was confirmed by analyzing changes in gene expression of multiple genes associated with fibroblast to myofibroblast transdifferentiation using biochemical methods (i.e., Western blot and RT-PCR). These 4-day assays were used to evaluate sets of 6 compounds at a time in 4-point dose response fashion.
The EC50 for (imaging and western based) activity is graded as: +++=<500 nM; ++=500 nM to 5 μM; +=5 to 30 μM); −=>30 μM; NT=Not Tested.

Structure (SMILES)	EC50 [µM]
CCC(C)n1ncn(-c2ccc(N3CCN(c4ccc(OC[C@H]5OC[C@](Cn6cncn6)(c6ccc(F)cc6F)O5)cc4)CC3)cc2)c1=O (mixture of isomers) [compound 200]	< 0.5
CCC(C)n1cnn(-c2ccc(N3CCN(c4ccc(OC[C@@H]5CO[C@@](Cc6ccnnc6)(c6ccccc6)O5)cc4)CC3)cc2)c1=O (mixture of isomers) [Compound 102]	0.5 to 5
CC(C)N1CCN(c2ccc(N3CCN(c4ccc(OC[C@H]5OC[C@](Cn6nccn6)(c6ccc(F)cc6F)O5)cc4)CC3)cc2)C1=O (racemic) [Compound 203, cis (±)-1-(4-(4-(4-((4-((2H-1,2,3-triazol-2-yl)methyl)-4-(2,4-difluorophenyl)-1,3-dioxolan-2-yl)methoxy)phenyl)piperazin-1-yl)phenyl)-3-isopropylimidazolidin-2-one]	> 30
CC(=O)N1CCN(c2ccc(OC[C@@H]3CO[C@@](Cn4nccn4)(c4ccc(Cl)cc4Cl)O3)cc2)CC1 [Compound 4]	> 30
CC(C)N1CCN(c2ccc(OC[C@@H]3CO[C@@](Cn4nccn4)(c4ccc(Cl)cc4Cl)O3)cc2)CC1 [Compound 5]	5 to 30
CCC(C)n1ncn(-c2ccc(OC[C@@H]3CO[C@@](Cn4nccn4)(c4ccc(Cl)cc4Cl)O3)cc2)c1=O (stereo partly drawn) [Compound 6]	> 30
CCC(C)n1ncn(-c2ccc(N3CCN(C[C@@H]4CO[C@@](Cn5nccn5)(c5ccc(Cl)cc5Cl)O4)CC3)cc2)c1=O (stereo partly drawn) [Compound 7]	> 30
CCC(C)n1ncn(-c2ccc(-c3ccc(OC[C@@H]4CO[C@@](Cn5nccn5)(c5ccc(Cl)cc5Cl)O4)cc3)cc2)c1=O (stereo partly drawn) [Compound 8]	> 30
CC(=O)C(C)n1cnn(-c2ccc(N3CCN(c4ccc(OC[C@@H]5CO[C@@](Cn6nccn6)(c6ccc(Cl)cc6Cl)O5)cc4)CC3)cc2)c1=O (stereo partly drawn) [Compound 10]	0.5 to 5
CCCC(C)n1ncn(-c2ccc(N3CCN(c4ccc(OC[C@@H]5CO[C@@](Cn6nccn6)(c6ccc(Cl)cc6Cl)O5)cc4)CC3)cc2)c1=O (stereo partly drawn) [Compound 12]	0.5 to 5
CCC(CC)n1ncn(-c2ccc(N3CCN(c4ccc(OC[C@@H]5CO[C@@](Cn6nccn6)(c6ccc(Cl)cc6Cl)O5)cc4)CC3)cc2)c1=O [Compound 13]	0.5 to 5
O=c1n(-c2ccc(N3CCN(c4ccc(OC[C@@H]5CO[C@@](Cn6nccn6)(c6ccc(Cl)cc6Cl)O5)cc4)CC3)cc2)cnn1CC1CCCC1 [Compound 14]	< 0.5
O=c1n(-c2ccc(N3CCN(c4ccc(OC[C@@H]5CO[C@@](Cn6nccn6)(c6ccccc6)O5)cc4)CC3)cc2)cnn1CC1CCNCC1 [Compound 15]	5 to 30
CC(O)C(C)n1cnn(-c2ccc(N3CCN(c4ccc(OC[C@@H]5CO[C@@](Cn6nccn6)(c6ccccc6)O5)cc4)CC3)cc2)c1=O (stereo partly drawn) [Compound 16]	5 to 30
CC(CCN)n1ncn(-c2ccc(N3CCN(c4ccc(OC[C@@H]5CO[C@@](Cn6nccn6)(c6ccccc6)O5)cc4)CC3)cc2)c1=O (stereo partly drawn) [Compound 17]	5 to 30
CC(C)n1ncn(-c2ccc(N3CCN(c4ccc(OC[C@@H]5CO[C@@](Cn6nccn6)(c6ccccc6)O5)cc4)CC3)cc2)c1=O [Compound 18]	5 to 30
CC(C)Cn1ncn(-c2ccc(N3CCN(c4ccc(OC[C@@H]5CO[C@@](Cn6nccn6)(c6ccccc6)O5)cc4)CC3)cc2)c1=O [Compound 19]	0.5 to 5
O=c1n(-c2ccc(N3CCN(c4ccc(OC[C@@H]5CO[C@@](Cn6nccn6)(c6ccccc6)O5)cc4)CC3)cc2)cnn1CC1CCCC1 [Compound 20]	5 to 30
CCCC(C)n1ncn(-c2ccc(N3CCN(c4ccc(OC[C@@H]5CO[C@@](Cn6nccn6)(c6ccc(C#N)cc6C)O5)cc4)CC3)cc2)c1=O (stereo partly drawn) [Compound 23]	0.5 to 5
CCC(C)n1ncn(-c2ccc(N3CCN(c4ccc(OC[C@@H]5CO[C@@](Cn6nccn6)(c6ccc(C#N)cc6C)O5)cc4)CC3)cc2)c1=O (stereo partly drawn) [Compound 24]	0.5 to 5
Cc1cc(C#N)ccc1[C@]1(Cn2nccn2)OC[C@@H](COc2ccc(N3CCN(c4ccc(-n5cnn(CC6CCCC6)c5=O)cc4)CC3)cc2)O1 [Compound 25]	0.5 to 5
CCC(C)n1ncn(-c2ccc(N3CCN(c4ccc(OC[C@@H]5CO[C@@](Cn6nccn6)(c6ccc(C#N)cc6Cl)O5)cc4)CC3)cc2)c1=O (stereo partly drawn) [Compound 26]	5 to 30

Structure (SMILES)	EC50 [µM]
CCC(C)n1ncn(-c2ccc(N3CCN(c4ccc(OC[C@@H]5CO[C@@](Cn6nccn6)(c6cc(C#N)ccc6Cl)O5)cc4)CC3)cc2)c1=O (stereo partly drawn) [Compound 27]	5 to 30
CCC(C)n1ncn(-c2ccc(N3CCN(c4ccc(OC[C@@H]5CO[C@@](Cn6nccn6)(c6cc(C#N)ccc6C)O5)cc4)CC3)cc2)c1=O (stereo partly drawn) [Compound 28]	5 to 30
CCC(C)n1ncn(-c2ccc(N3CCN(c4ccc(OC[C@@H]5CO[C@@](Cn6nccn6)(c6cccc(Cl)c6Cl)O5)cc4)CC3)cc2)c1=O (stereo partly drawn) [Compound 29]	< 0.5
CCC(C)n1ncn(-c2ccc(N3CCN(c4ccc(OC[C@@H]5CO[C@@](Cn6nccn6)(c6ccc(Br)cc6Br)O5)cc4)CC3)cc2)c1=O (stereo partly drawn) [Compound 30]	0.5 to 5
CCC(C)n1ncn(-c2ccc(N3CCN(c4ccc(OC[C@@H]5CO[C@@](Cn6nccn6)(c6ccc(Cl)cc6Br)O5)cc4)CC3)cc2)c1=O (stereo partly drawn) [Compound 31]	< 0.5
CCC(C)n1ncn(-c2ccc(N3CCN(c4ccc(OC[C@@H]5CO[C@@](Cn6nccn6)(c6cc(Cl)ccc6Cl)O5)cc4)CC3)cc2)c1=O (stereo partly drawn) [Compound 33]	0.5 to 5
CCC(C)n1ncn(-c2ccc(N3CCN(c4ccc(OC[C@@H]5CO[C@@](Cn6nccn6)(c6cc(Cl)ccc6C)O5)cc4)CC3)cc2)c1=O (stereo partly drawn) [Compound 34]	0.5 to 5
CCC(C)n1ncn(-c2ccc(N3CCN(c4ccc(OC[C@@H]5CO[C@@](Cn6nccn6)(c6cc(Cl)ccc6Br)O5)cc4)CC3)cc2)c1=O (stereo partly drawn) [Compound 35]	0.5 to 5
CCC(C)n1ncn(-c2ccc(N3CCN(c4ccc(OC[C@@H]5CO[C@@](Cn6nccn6)(c6ccc(CN)cc6)O5)cc4)CC3)cc2)c1=O (stereo partly drawn) [Compound 37]	0.5 to 5
CCC(C)n1ncn(-c2ccc(N3CCN(c4ccc(OC[C@@H]5CO[C@@](Cn6nccn6)(c6ncccn6)O5)cc4)CC3)cc2)c1=O (stereo partly drawn) [Compound 38]	> 30
CCC(C)n1ncn(-c2ccc(N3CCN(c4ccc(OC[C@@H]5CO[C@@](CCl)(c6ccc(Cl)cc6Cl)O5)cc4)CC3)cc2)c1=O (stereo partly drawn) [Compound 39]	0.5 to 5
CCC(C)n1ncn(-c2ccc(N3CCN(c4ccc(OC[C@@H]5CO[C@@](CC)(c6ccc(Cl)cc6Cl)O5)cc4)CC3)cc2)c1=O (stereo partly drawn) [Compound 40]	0.5 to 5
CCC(C)n1ncn(-c2ccc(N3CCN(c4ccc(OC[C@@H]5CO[C@@](Cn6ccc(=O)cc6)(c6ccc(Cl)cc6Cl)O5)cc4)CC3)cc2)c1=O (stereo partly drawn) [Compound 41]	< 0.5
CCC(C)n1ncn(-c2ccc(N3CCN(c4ccc(OC[C@@H]5CO[C@@](Cn6ncc(Cl)c(Cl)c6=O)(c6ccc(Cl)cc6Cl)O5)cc4)CC3)cc2)c1=O (stereo partly drawn) [Compound 42]	5 to 30
CCC(C)n1ncn(-c2ccc(N3CCN(c4ccc(OC[C@@H]5CO[C@@](CN6CCOCC6)(c6ccc(Cl)cc6Cl)O5)cc4)CC3)cc2)c1=O (stereo partly drawn) [Compound 44]	> 30
CCC(C)n1ncn(-c2ccc(N3CCN(c4ccc(OC[C@@H]5CO[C@](CN6CCOCC6)(c6ccc(Cl)cc6Cl)O5)cc4)CC3)cc2)c1=O (stereo partly drawn) [Compound 45]	> 30
CCC(C)n1ncn(-c2ccc(N3CCN(c4ccc(OC[C@@H]5CO[C@@](Cn6cccn6)(c6ccccc6)O5)cc4)CC3)cc2)c1=O (stereo partly drawn) [Compound 48]	< 0.5
CCC(C)n1ncn(-c2ccc(N3CCN(c4ccc(OC[C@@H]5CO[C@@](Cn6ncc7ccccc76)(c6ccc(Cl)cc6Cl)O5)cc4)CC3)cc2)c1=O (stereo partly drawn) [Compound 49]	0.5 to 5
CCC(C)n1ncn(-c2ccc(N3CCN(c4ccc(OC[C@@H]5CO[C@@](Cn6nc7ccccc7n6)(c6ccc(C#N)cc6C)O5)cc4)CC3)cc2)c1=O (stereo partly drawn) [Compound 50]	0.5 to 5
CCC(C)n1ncn(-c2ccc(N3CCN(c4ccc(OC[C@@H]5CO[C@@](Cn6cccn6)(c6ccc(C#N)cc6C)O5)cc4)CC3)cc2)c1=O (stereo partly drawn) [Compound 51]	< 0.5
CCC(C)n1ncn(-c2ccc(N3CCN(c4ccc(OC[C@@H]5CO[C@@](CCn6nccn6)(c6ccc(Cl)cc6Cl)O5)cc4)CC3)cc2)c1=O (stereo partly drawn) [Compound 52]	< 0.5
CCC(C)n1ncn(-c2ccc(N3CCN(c4ccc(OC[C@@H]5CO[C@@](Cn6nccn6)(c6ccc(Cl)cc6Cl)O5)cn4)CC3)cc2)c1=O (stereo partly drawn) [Compound 53]	0.5 to 5

Same assay, conditions: imaging and western based activity

Structure (SMILES)	EC50 [µM]
CCC(CC)n1ncn(-c2ccc(N3CCN(c4ccc(OC[C@@H]5CO[C@@](Cn6nccn6)(c6ccccc6)O5)cc4)CC3)cc2)c1=O [Compound 21]	< 0.5
